Measurements: US11713338B2, “Cyclic peptides multimers targeting α-4-β-7 integrin” (priority 2016, dated 2023)

Assays:
[1] = target: T1, recombinant integrin α4β7 (Homo sapiens, UniProt P13612+P26010, DEL724-798); experiment: Integrin α4β7—MAdCAM-1 ELISA competition assay; format: binding; settings: for ELISA Assay Ratio b1/b7: ratio of a4b1 to a4b7 ELISA IC50; for IC50: read-out: ELISA a4b7 Assay IC50
T1 construct: purchased R&D Systems 5397-A3-050
T1 sequence (P13612 34-970 limits assumed): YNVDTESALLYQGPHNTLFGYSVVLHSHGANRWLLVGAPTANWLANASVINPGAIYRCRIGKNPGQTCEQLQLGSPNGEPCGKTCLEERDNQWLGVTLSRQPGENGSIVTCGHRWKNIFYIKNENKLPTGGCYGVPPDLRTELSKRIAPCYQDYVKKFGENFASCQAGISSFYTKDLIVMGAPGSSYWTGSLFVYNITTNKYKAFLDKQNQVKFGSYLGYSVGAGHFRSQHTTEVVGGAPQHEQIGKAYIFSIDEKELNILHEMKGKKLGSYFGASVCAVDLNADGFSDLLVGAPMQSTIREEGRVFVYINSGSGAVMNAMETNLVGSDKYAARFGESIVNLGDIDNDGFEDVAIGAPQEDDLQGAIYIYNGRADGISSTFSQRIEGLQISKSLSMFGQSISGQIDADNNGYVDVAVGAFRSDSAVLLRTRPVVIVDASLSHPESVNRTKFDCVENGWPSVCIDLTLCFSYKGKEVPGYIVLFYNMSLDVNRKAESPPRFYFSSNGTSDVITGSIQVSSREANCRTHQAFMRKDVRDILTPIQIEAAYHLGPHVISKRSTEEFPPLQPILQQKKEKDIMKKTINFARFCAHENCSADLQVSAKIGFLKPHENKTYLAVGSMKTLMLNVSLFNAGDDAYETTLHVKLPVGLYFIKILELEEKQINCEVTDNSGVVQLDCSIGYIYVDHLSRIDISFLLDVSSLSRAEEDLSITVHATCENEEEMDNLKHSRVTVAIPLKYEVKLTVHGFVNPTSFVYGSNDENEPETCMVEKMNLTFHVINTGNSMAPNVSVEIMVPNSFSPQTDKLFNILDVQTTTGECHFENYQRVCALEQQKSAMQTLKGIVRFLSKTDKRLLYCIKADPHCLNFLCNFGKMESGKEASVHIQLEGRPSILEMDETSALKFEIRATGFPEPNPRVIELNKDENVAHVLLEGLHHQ
T1 sequence (P26010 20-723 limits assumed): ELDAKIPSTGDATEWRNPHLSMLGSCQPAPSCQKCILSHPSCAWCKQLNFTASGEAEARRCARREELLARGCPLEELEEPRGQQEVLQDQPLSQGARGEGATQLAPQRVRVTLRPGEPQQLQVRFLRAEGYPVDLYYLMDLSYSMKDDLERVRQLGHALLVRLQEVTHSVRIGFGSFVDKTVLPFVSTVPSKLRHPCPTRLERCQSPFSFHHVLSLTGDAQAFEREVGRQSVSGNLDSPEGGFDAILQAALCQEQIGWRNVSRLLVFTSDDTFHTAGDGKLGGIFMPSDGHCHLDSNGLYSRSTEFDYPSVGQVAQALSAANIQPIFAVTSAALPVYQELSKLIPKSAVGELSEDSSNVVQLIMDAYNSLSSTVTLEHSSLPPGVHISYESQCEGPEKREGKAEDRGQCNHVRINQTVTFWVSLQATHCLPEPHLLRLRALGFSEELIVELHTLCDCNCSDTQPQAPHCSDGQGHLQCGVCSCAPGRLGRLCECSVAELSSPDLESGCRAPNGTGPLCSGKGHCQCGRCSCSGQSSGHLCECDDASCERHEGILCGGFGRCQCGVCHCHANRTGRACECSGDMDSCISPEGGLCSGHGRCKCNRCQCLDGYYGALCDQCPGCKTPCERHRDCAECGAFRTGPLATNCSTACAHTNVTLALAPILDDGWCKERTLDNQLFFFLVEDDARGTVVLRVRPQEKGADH

[2] = target: T2, recombinant integrin α4β1 (Homo sapiens, UniProt P05556+P13612); experiment: Integrin α4β1—VCAM-1 competition ELISA; format: binding; settings: read-out: ELISA a4b1 Assay IC50
T2 construct: purchased R&D Systems 5397-A3-050
Description: Integrin α4β1—VCAM-1 Competition ELISA
The plate was incubated at 4° C. overnight. […] The plate was then incubated for 1 hour at room temperature. The plate was washed three times with wash buffer (50 mM Tris, 100 mM NaCl, 1 mM MnCl2, 0.05% Tween). To each well, 50 μl of compound diluted in assay buffer was added by transfer from a compound serial dilution plate. […] The plate was incubated at room temperature with shaking (300 rpm) for 2 hours to reach binding equilibrium. Then the plate was washed three times in wash buffer and 100 μl anti-human IgG Fc specific-HRP (Abcam, Ab97225) diluted at 1:2000 in assay buffer was added to each well. The plate was incubated at room temperature for 1 hour under agitation.

T2 sequence (P05556 21-728 limits assumed, one chain of several): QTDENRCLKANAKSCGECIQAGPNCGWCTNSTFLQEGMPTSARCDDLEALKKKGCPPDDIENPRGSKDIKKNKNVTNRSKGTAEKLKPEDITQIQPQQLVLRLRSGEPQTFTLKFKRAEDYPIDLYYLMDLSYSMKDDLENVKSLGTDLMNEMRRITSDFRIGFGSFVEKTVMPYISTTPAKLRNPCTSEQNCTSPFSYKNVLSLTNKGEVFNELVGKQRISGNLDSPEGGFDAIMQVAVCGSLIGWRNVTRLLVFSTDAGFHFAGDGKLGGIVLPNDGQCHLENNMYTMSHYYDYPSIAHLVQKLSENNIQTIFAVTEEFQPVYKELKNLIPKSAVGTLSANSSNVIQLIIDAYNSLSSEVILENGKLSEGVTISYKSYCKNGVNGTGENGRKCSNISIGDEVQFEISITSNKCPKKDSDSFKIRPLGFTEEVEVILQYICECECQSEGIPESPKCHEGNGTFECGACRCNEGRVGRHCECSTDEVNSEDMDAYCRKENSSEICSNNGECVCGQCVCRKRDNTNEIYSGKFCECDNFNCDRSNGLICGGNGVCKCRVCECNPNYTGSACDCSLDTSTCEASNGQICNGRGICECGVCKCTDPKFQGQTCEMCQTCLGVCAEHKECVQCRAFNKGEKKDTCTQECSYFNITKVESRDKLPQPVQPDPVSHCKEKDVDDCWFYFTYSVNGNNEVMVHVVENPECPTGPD

SMILES | ELISA Assay Ratio b1/b7 [1] | IC50 [1] | IC50 [2]
CC(C)C[C@@H]1NC(=O)[C@@H]2C[C@@H](O)CN2C(=O)[C@H](Cc2ccc(O)cc2)NC(=O)[C@@H]2CCCN2[C@H](C(=O)NC(C)(C)C)[C@H](C)NC(=O)[C@H]([C@@H](C)O)NC(=O)[C@H](CC(=O)O)NC1=O [Compound 139] | 0.7 | 100 nM | 73 nM
CC(C)C[C@@H]1NC(=O)[C@H]2C[C@@H](O)CN2C(=O)[C@H](Cc2ccc(O)cc2)NC(=O)[C@@H]2CCCN2[C@H](C(=O)NC(C)(C)C)[C@H](C)NC(=O)[C@H]([C@@H](C)O)NC(=O)[C@H](CC(=O)O)NC1=O [Compound 141] | 2.0 | 19 nM | 36 nM
CC(C)C[C@@H]1NC(=O)[C@H]2CCCCN2C(=O)[C@H](Cc2cccc3ccccc23)NC(=O)[C@@H]2CCCN2[C@H](C(=O)NC(C)(C)C)[C@H](C)NC(=O)[C@H]([C@@H](C)O)NC(=O)[C@H](CC(=O)O)NC1=O [Compound 143] | 2.1 | 33 nM | 68 nM
C[C@@H]1NC(=O)[C@H]([C@@H](C)O)NC(=O)[C@H](CC(=O)O)NC(=O)[C@H](CC(C)(C)C)NC(=O)[C@H]2CCCCN2C(=O)[C@H](Cc2ccc(O)cc2)NC(=O)[C@@H]2CCCN2[C@@H]1C(=O)NC(C)(C)C [Compound 150] | 8.2 | 54 nM | 447 nM
CC(C)C[C@@H]1NC(=O)[C@H]2C[C@H](O)CN2C(=O)[C@H](Cc2cscn2)NC(=O)[C@@H]2CCCN2[C@H](C(=O)NC(C)(C)C)[C@H](C)NC(=O)[C@H]([C@@H](C)O)NC(=O)[C@H](CC(=O)O)NC1=O [Compound 151] | 4.1 | 53 nM | 218 nM
CC(C)C[C@@H]1NC(=O)[C@H]2C[C@H](O)CN2C(=O)[C@H](Cc2ccc(CN)cc2)NC(=O)[C@@H]2CCCN2[C@H](C(=O)NC(C)(C)C)[C@H](C)NC(=O)[C@H]([C@@H](C)O)NC(=O)[C@H](CC(=O)O)NC1=O [Compound 152] | 13.2 | 102 nM | 1350 nM
CC[C@H](C)[C@@H]1NC(=O)[C@H](CC(=O)O)NC(=O)[C@H](CC(C)C)NC(=O)[C@@H](CCCCN)N(C)C(=O)[C@H](Cc2ccc(O)cc2)NC(=O)[C@@H]2CCCN2[C@H](C(=O)NC(C)(C)C)[C@H](C)NC1=O [Compound 154] | 22.8 | 117 nM | 2660 nM
CC(C)C[C@@H]1NC(=O)[C@@H](CCCNC(=N)N)N(C)C(=O)[C@H](Cc2ccc(O)cc2)NC(=O)[C@@H]2CCCN2[C@H](C(=O)NC(C)(C)C)[C@H](C)NC(=O)[C@H]([C@@H](C)O)NC(=O)[C@H](CC(=O)O)NC1=O [Compound 157] | 55.3 | 67 nM | 3710 nM
C=CCOc1ccc(C[C@@H]2NC(=O)[C@@H]3CCCN3[C@H](C(=O)NC(C)(C)C)[C@H](C)NC(=O)[C@H]([C@@H](C)O)NC(=O)[C@H](CC(=O)O)NC(=O)[C@H](CC(C)C)NC(=O)CNC2=O)cc1 [Compound 163] | 11.0 | 126 nM | 1390 nM
C=CCOc1ccc(C[C@@H]2NC(=O)[C@@H]3CCCN3[C@H](C(=O)NC(C)(C)C)[C@H](C)NC(=O)[C@H]([C@@H](C)O)NC(=O)[C@H](CC(=O)O)NC(=O)[C@H](CC(C)C)NC(=O)[C@@H](C(C)C)NC2=O)cc1 [Compound 166] | 7.7 | 179 nM | 1380 nM
CC(C)C[C@@H]1NC(=O)CN(C)C(=O)[C@H](Cc2csc(-c3ccccn3)n2)NC(=O)[C@@H]2CCCN2[C@H](C(=O)NC(C)(C)C)[C@H](C)NC(=O)[C@H]([C@@H](C)O)NC(=O)[C@H](CC(=O)O)NC1=O [Compound 179] | 15.2 |  | 2660 nM
CC(C)C[C@@H]1NC(=O)C[C@H](CCCCN)NC(=O)[C@H](CC2CCCCC2)NC(=O)[C@@H]2CCCN2[C@H](C(=O)NC(C)(C)C)[C@H](C)NC(=O)[C@H]([C@@H](C)O)NC(=O)[C@H](CC(=O)O)NC1=O [Compound 210] | 16.0 | 72 nM | 1150 nM
CC(C)C[C@@H]1NC(=O)C[C@H](CCCCN)NC[C@H](Cc2ccc(CN)cc2)NC(=O)[C@@H]2CCCN2[C@H](C(=O)NC(C)(C)C)[C@H](C)NC(=O)[C@H]([C@@H](C)O)NC(=O)[C@H](CC(=O)O)NC1=O [Compound 218] | 16.5 | 190 nM | 3130 nM
CC[C@H](C)[C@@H]1NC(=O)[C@H](CC(=O)O)NC(=O)[C@H](CC(C)C)NC(=O)C[C@H](CCCCN)NC(=O)[C@@H](Cc2ccc(CN)cc2)NC(=O)[C@@H]2CCCN2[C@H](C(=O)NC(C)(C)C)[C@H](C)NC1=O [Compound 253] | 15.6 | 69 nM | 1090 nM
CC(C)C[C@@H]1NC(=O)C[C@H](CCCCN)NC(=O)[C@H](Cc2ccc(I)cc2)NC(=O)[C@@H]2CCCN2[C@H](C(=O)NC(C)(C)C)[C@H](C)NC(=O)[C@H]([C@@H](C)O)NC(=O)[C@H](CC(=O)O)NC1=O [Compound 260] | 58.1 | 165 nM | 9560 nM
CC(C)C[C@@H]1NC(=O)C[C@H](CCCCN)NC(=O)[C@](C)(Cc2ccccc2)NC(=O)[C@@H]2CCCN2[C@H](C(=O)NC(C)(C)C)[C@H](C)NC(=O)[C@H]([C@@H](C)O)NC(=O)[C@H](CC(=O)O)NC1=O [Compound 263] | 23.1 | 102 nM | 2350 nM
Cc1cccc(C)c1-c1cccc(C[C@@H]2NC(=O)[C@@H]3CCCN3[C@H](C(=O)NC(C)(C)C)[C@H](C)NC(=O)[C@H]([C@@H](C)O)NC(=O)[C@H](CC(=O)O)NC(=O)[C@H](CC(C)C)NC(=O)C[C@H](CCCCN)NC2=O)c1 [Compound 265] | 46.2 | 39 nM | 1820 nM
Cc1cccc(C)c1-c1ccc(C[C@@H]2NC(=O)[C@@H]3CCCN3[C@H](C(=O)NC(C)(C)C)[C@H](C)NC(=O)[C@H]([C@@H](C)O)NC(=O)[C@H](CC(=O)O)NC(=O)[C@H](CC(C)C)NC(=O)C[C@H](CCCCN)NC2=O)cc1 [Compound 268] | 24.6 | 76 nM | 1870 nM
COc1cccc(Cl)c1-c1ccc(C[C@@H]2NC(=O)[C@@H]3CCCN3[C@H](C(=O)NC(C)(C)C)[C@H](C)NC(=O)[C@H]([C@@H](C)O)NC(=O)[C@H](CC(=O)O)NC(=O)[C@H](CC(C)C)NC(=O)C[C@H](CCCCN)NC2=O)cc1 [Compound 269] | 31.6 | 56 nM | 1760 nM
CC(C)C[C@@H]1NC(=O)C[C@H](CCCCN)NC(=O)[C@H](Cc2ccccc2-c2ccc(N3CCNCC3)cc2)NC(=O)[C@@H]2CCCN2[C@H](C(=O)NC(C)(C)C)[C@H](C)NC(=O)[C@H]([C@@H](C)O)NC(=O)[C@H](CC(=O)O)NC1=O [Compound 271] | 34.6 |  | 1150 nM
